Experimental data reported in ChEMBL document CHEMBL4270507, “Covalent binding design strategy: A prospective method for discovery of potent targeted anticancer agents” (Eur J Med Chem, 2017).

The compounds below were run against Tyrosine-protein kinase BTK (Homo sapiens, UniProt Q06187) (assay: Inhibition of BTK (unknown origin)).
Compound `Nc1ncnc2c1c(-c1ccc(Oc3ccccc3)cc1)nn2C1CCCN(C(=O)/C=C/Cl)C1` (configuration not stated) has an IC50 of 0.52 nM.

These compounds were tested on GTPase KRas (Homo sapiens), P01116 [G12C] (assay: Binding affinity to hexa-histidine-tagged recombinant human K-Ras isoform 2 G12C mutant (1 to 169 residues) expressed in Escherichia coli BL21 (DE3) at 10 uM after 24 hrs).
Work on `C=CC(=O)N1CCN(C(=O)CNc2cc(C(F)(F)F)c(Cl)cc2OC)CC1` yielded an Activity of 14%. `C=CS(=O)(=O)NC1CCN(C(=O)CNc2cc(I)c(Cl)cc2OC)CC1` was tested, and the Activity was 100%. In the case of `C=CC(=O)N1CCN(C(=O)CNc2cc(I)c(Cl)cc2O)CC1`, the Activity is reported as 100%. `C=CS(=O)(=O)NC1CCN(C(=O)CNc2cc(Cl)c(Cl)cc2O)CC1` was tested, and the Activity was 87%. In the case of `C=CC(=O)N1CCN(C(=O)CNc2cc(Cl)c(Cl)cc2OC)CC1`, the Activity is reported as 28%. `C=CS(=O)(=O)NC1CCN(C(=O)CNc2c(Cl)cc(Cl)c3c2OC(C)(C)O3)CC1` gave an Activity of 50%.
